Data set [1] has as its system HAEC. The data set is described as follows: Cellular uptake: Mito-Esc/esculetin quantified by ESI-MS in cytosolic and mitochondrial fractions of HAEC. The data set is classed as in vitro ADME, human. The protocol: After the treatment, cells were washed thrice with PBS. Similarly Mito-Esculetin+ Ang-II treatment group, Ang-II alone treatment group and control Apo E^−/− mice aortic tissue was taken. The isolation of mitochondrial and cytosolic extracts was carried out using a commercially available Proteo Extract Cytosol/Mitochondria Fractionation Kit (Cat. no. QIA88-Merck, USA) according to manufacturer's instructions. Initially, mitochondrial and cytosolic fractions were separated using a commercially available kit as mentioned elsewhere. Mito-Esc was quantified in the mitochondrial and cytosolic fractions obtained from HAEC and aorta of ApoE^−/− mice of different treatment groups as mentioned in Animal Experiments section (Table-1). Electrospray ionization (ESI)-MS. ESI-MS (positive mode) measurements were performed using a quadrupole time-of-flight mass spectrometer (QSTAR XL, Applied Biosystems/MDS Sciex, Foster City, Calif., USA). The data acquisition was under the control of Analyst QS software (Applied Biosystems). For the CID (collision-induced dissociation) experiments, the precursor ions were selected using the quadrupole analyzer and the product ions were analyzed using the TOF analyzer.

Data set [2] has as its system Ang-II-induced atherosclerosis in ApoE−/− mice. Description: Serum lipid profile of Ang-II treated ApoE−/− mice. The data set is classed as in vivo.
Procedure: (§2) Experiments were conducted in 2-month-old male apolipoprotein E knockout (ApoE^−/−) mice according to the guidelines formulated for care and use of animals in scientific research (ICMR, New Delhi, India) at a CPCSEA (Committee for the Purpose of Control and Supervision of Experiments on Animals) registered animal facility. […] Animals were randomly divided into 3 groups each n=7:1) control 2) Ang-II treatment and 3) Mito-Esculetin+Ang-II treatment. Ang-II and Mito-Esculetin treatment groups received Ang-II (sigma) at a dose of 1.44 mg/kg/day for 6 weeks through sub-cutaneous route where as control group received normal saline. Mito-Esculetin treatment group received the compound at a dose of 0.5 mg/kg/day in normal drinking water. All animals were fed on normal chow throughout the study. After 6 weeks, all groups of animals were sacrificed as per standard protocols for euthanasia.
(§3) We further analyzed the vascular remodelling employing histological stains in tissue sections of thoracic aortas. […] In tune with this, we have also measured Mac-3 levels by flow cytometry.
In data set [3] the test system is human aortic endothelial cells (HAEC). The data set is described as follows: Trypan blue cell viability assay, oxidant-induced endothelial cell death. The data set is classed as cell-based. As to conditions: 2.5 μM, 2 h pretreatment, H2O2 500 μM or Ang-II 500 nM, 24 h. The protocol: Human aortic endothelial cells (HAECs) were obtained from ATCC (Manassas, Va.) and maintained (37° C. 5% CO2) in basal medium supplemented with 10% FBS, VEGF (5 ng/mL), hEGF (5 ng/mL), hFGF (5 ng/mL), IGF-1 (15 ng/mL), ascorbic acid (50 μg/mL), hydrocortisone (1 μg/mL), amphotericin (15 ng/mL), gentamicin (30 ng/mL) and heparin (0.75 Units/mL). Cells used in this study were between passages 4 and 9. Esculetin, Mito-Esc, TPP and nitric oxide synthase inhibitor (L-NAME) were added 2 h before the addition of H2O2 or Ang-II.
At the end of the treatments, cells were harvested and re-suspended in 0.4% trypan blue (Life Technologies) and percent cell viability was counted using cell countess chamber (Life Technologies).
For this, cells were pretreated for 2 h with either Mito-Esc or esculetin before they were incubated with either H2O2 or Ang-II.

The test system of data set [4] is nitric oxide generation in HAEC. Description: Intracellular nitric oxide levels by DAF-2DA fluorescence. As to conditions: 2.5 μM, 4 h. In kind it is cell-based, human. The protocol:
Intracellular nitric oxide levels were monitored by using the Diaminofluorescein-diacetate (DAF-2DA) fluorescence probe. After the treatments, cells were washed with DPBS and incubated in fresh culture medium without fetal bovine serum (FBS). DAF-2DA was added at a final concentration of 5 μM, and the cells were incubated for 30 minutes. The cells were washed twice with DPBS and maintained in culture medium. Fluorescence was monitored by using Olympus fluorescence microscope with FITC filter (λex=488 nm and […]). Fluorescence intensity was calculated by Image-Pro plus7.0 software.
(§1) To gain mechanistic insight on Mito-Esc-mediated protection of endothelial cells from oxidant-induced endothelial cell death, initially we hypothesized that Mito-Esc may augment intracellular nitric oxide generation. To study this, HAEC were treated with both Mito-Esc and esculetin in the presence or absence of H2O2 for a period of 4 h and nitric oxide (NO) levels were monitored by DAF-2 derived green fluorescence. Previously, it has been shown that DAF-2 forms a fluorescent triazole-type product in the presence of an oxidant derived from nitric oxide and oxygen interaction (Proc. Natl. Acad. Sci. USA 99: 11127-11132; 2002.; Am. J. Physiol. Regul. Integ. Comp. Physiol. 286:R344-R431; 2004). […] Next, we investigated the possible role of endothelial nitric oxide synthase (eNOS) in mediating the Mito-Esc induced NO generation in HAEC. For this, endothelial cells were treated with various concentrations of Mito-Esc (1-5 μM) for a period of 8 h. […] To further substantiate the results of DAF fluorescence, eNOS phosphorylation was measured in HAEC incubated with either with H2O2 or Ang-II for 8 h in cells pretreated with Mito-Esc or native esculetin. It was observed that both H2O2 and Ang-II caused a reduction in Phospho eNOS (Ser-1177) levels (FIG. 4D). Ang-II treatment imposed a drastic inhibition of phospho-eNOS levels when compared to H2O2 treatment in endothelial cells (FIG. 4D).

Data set [5] deals with eNOS phosphorylation (Ser-1177). Description: Western blot of eNOS phosphorylation in HAEC. As to conditions: 8 h. The data set is classed as cell-based, human. The method, then:
as §1
In general terms: Immunoblotting shows a protein as a band on a membrane.

Data set [6] relates to HAEC aging / senescence. Description: Senescence-associated β-galactosidase staining. The data set is classed as cell-based, human. The protocol: Low and high passage number (which reflects young and aged) endothelial cells (HAEC) cells were treated with various concentrations of H2O2 (50-500 μM)) for 8 h. Cells were washed in PBS, fixed for […] (room temperature) in 2% formaldehyde/0.2% glutaraldehyde, washed, and incubated at 37° C. with fresh senescence associated β-Gal (SA-,β-Gal) stain solution: 1 mg of 5-bromo-4-chloro-3-indolyl β-D-galactoside (X-Gal) per ml (stock=20 mg of dimethylformamide per ml)/40 mM citric acid/sodium phosphate, pH 6.0; 5 mM potassium ferrocyanide/5 mM potassium ferricyanide/150 mM NaCl/2 mM MgCl2. Staining was visualized after 24 h using a phase contrast microscope.
To study if Mti-Esc influences vascular aging; we have studied its effect on human aortic endothelial cell (HAEC) aging. For this, we used HAEC of different passages (representing different age) from P6 (young age) to P16 (old age). Also we have grown HAEC with Mito-Esc (2.5 μM) for six generations (six passages) to understand its chronic effects in regulating endothelial cell aging phenomenon.

In data set [7] the test system is mitochondrial content in HAEC. Description: Mitotracker staining of mitochondrial content. The note with it: 2.5 μM, 8 h.
Procedure: Mitochondrial content in cells was assessed by selectively loading the mitochondria with the red fluorescent dye Mitotracker (Invitrogen, Carlsbad, Calif.).
The test system of data set [8] is eNOS and AMPK phosphorylation. The data set is described as follows: eNOS and AMPK phosphorylation in total aorta lysate of ApoE−/− mice. The note with it: compared to Ang-II alone or control.
Procedure: Experiments were conducted in 2-month-old male apolipoprotein E knockout (ApoE^−/−) mice according to the guidelines formulated for care and use of animals in scientific research (ICMR, New Delhi, India) at a CPCSEA (Committee for the Purpose of Control and Supervision of Experiments on Animals) registered animal facility. […] Animals were randomly divided into 3 groups each n=7:1) control 2) Ang-II treatment and 3) Mito-Esculetin+Ang-II treatment. Ang-II and Mito-Esculetin treatment groups received Ang-II (sigma) at a dose of 1.44 mg/kg/day for 6 weeks through sub-cutaneous route where as control group received normal saline. Mito-Esculetin treatment group received the compound at a dose of 0.5 mg/kg/day in normal drinking water. […]
At the end of the treatments, HAECs were washed with ice-cold DPBS and resuspended in RIPA buffer (20 mM Tris-HCl, pH 7.4/2.5 mM EDTA/1% Triton X-100/1% sodium deoxycholate/1% SDS/100 mM NaCl/100 mM sodium fluoride) containing protease inhibitor cocktail and phosphatase inhibitor cocktail-2 and -3. […] Protein bands were detected by using HRP substrate (Millipore-luminata). […]
To further corroborate Mito-Esc's ability to protect from Ang-II-induced endothelial dysfunction during the progression of atheromatous plaque formation, we measured phospho-AMPK, AMPK, phospho-eNOS and eNOS protein levels in total aorta lysate.
Data set [9] concerns Ang-II-induced atherosclerosis in ApoE−/− mice. Description: Ang-II-induced aortic aneurysm and atheromatous plaque formation in ApoE−/− mice.
Procedure: as §2, §3
Where [10] appears, read: serum, ApoE−/− mice, 45 days, Ang-II alone or Ang-II + Mito-Esc.
Where [11] appears, read: ApoE−/− mice, thoracic aorta sections.

With `O=c1cc(CCCCCCCC[P+](c2ccccc2)(c2ccccc2)c2ccccc2)c2cc(O)c(O)cc2o1.[Br-]` [Mito-Esc], in data set [1], the “accumulation in the mitochondria compared to native esculetin” value was “selectively accumulated in the mitochondria”. In addition, in data set [1] (HAEC, 2.5 μM, 24 h), the Cytosolic fraction worked out at 4488 ± 104 nmol/mg protein and the Mitochondrial fraction amounted to 14523 ± 342 nmol/mg protein. Besides, in [2] (ApoE−/− mice serum), the “Ang-II mediated increase in LDL, VLDL, triglycerides and total cholesterol” value is “significantly reduced”; the “serum HDL levels” value was “significant rise”. Moreover, in data set [2] (setting [10]), the HDL came out at 45.53 ± 0.4 mg/dL, the LDL is reported as 218.40 ± 20.9 mg/dL, the “Total Cholesterol” value amounted to 414.85 ± 8.2 mg/dL and the Triglycerides was 150.74 ± 3.8 mg/dL. Also, in [2] (setting [10]), the VLDL is reported as 30.15 ± 0.4 mg/dL. Moreover, in data set [3], the “oxidant (H2O2 and Ang-II)-induced endothelial cell death” value is reported as “significantly inhibited”. The “DAF-2 fluorescence (NO production), compound alone” value in data set [4] is “greatly enhanced”. In [4] (H2O2 500 μM), the “H2O2-mediated depletion of NO levels” value is “significantly restored”. In addition, in [5] (1-5 μM), the “phosphorylation of eNOS at Ser-1177” value was “dose-dependently increased”. Also, the “oxidant-mediated decrease in eNOS-phosphorylation” value in [5] (H2O2 or Ang-II, pretreated cells) is “caused cells resistant to oxidant-mediated decrease”. Besides, the “endothelial cell aging (senescence-associated β-gal staining)” value in data set [6] (HAEC, 2.5 μM chronic treatment for six passages) is “greatly attenuated”. The H2O2-induced premature senescence result in data set [6] (P6 (young age) HAEC, H2O2) is on record as “significantly inhibited”. Moreover, the “mitochondrial content, treatment alone compared to control” value in data set [7] is “increased mitochondrial content”. Also, in [8], the “phosphorylation statuses of eNOS and AMPK in total aorta lysate” value was “significant increase”. The “thick fibrous mature connective tissue around atheroma (Masson trichrome staining)” value in data set [9] (ApoE−/− mice aorta) is given as “almost disappeared”. For the same molecule, the “Ang-II-induced plaque extension, micro/pseudo aneurysm formation and maximal aortic diameters” value in data set [9] (ApoE−/− mice, thoracic and abdominal aorta, six weeks, 0.5 mg/kg/day in drinking water) is recorded as “significant reduction”. Besides, in data set [9] (setting [11]), the “Ang-II induced severe atherosclerotic lesions (H&E staining of aorta)” value is “complete protection” and the “luminal diameter compared to Ang-II alone” value was “significantly restored”.

(Values after patent US9963476B2, “Antioxidant compound having anti atherosclerotic effect and preparation thereof” (Council of Scientific and Industrial Research, priority 2015, dated 2018).)
